# Earlier results in patent publication US12233067B2, “Topical treatment of vitiligo by a JAK inhibitor” (Incyte Corporation, priority 2019, dated 2025).
# How the values were obtained:
# [1] = test system: patient with both alopecia areata and vitiligo; settings: oral 20 mg BID for 20 weeks
# [2] = test system: patient with widespread and progressive vitiligo; settings: oral 5 mg QD; after 5 months of treatment
SMILES,clinical outcome [1],clinical outcome [2]
"N#CC[C@H](C1CCCC1)n1cc(-c2ncnc3[nH]ccc23)cn1 [ruxolitinib, (R)-3-(4-(7H-pyrrolo[2,3-d]pyrimidin-4-yl)-1H-pyrazol-1-yl)-3-cyclopentylpropanenitrile]",hair regrowth as well as repigmentation of areas affected with vitiligo,
C[C@@H]1CCN(C(=O)CC#N)C[C@@H]1N(C)c1ncnc2[nH]ccc12 [tofacitinib],,near complete repigmentation
